Measured values as given in US6656714B2, “Nucleic acids and proteins of a rat ganglioside GM1-specific α1→2 fucosyltransferase and uses thereof” (Northwest Hospital, priority 1999, dated 2003).

Assays:
α1→2FucT = α1→2FucT enzyme activity in liver of AAF-fed rats; assay type: in vivo; details: AAF-fed rat liver sample; none detected in normal liver
[1] = biological target: T1, full length rat hepatoma α1→2FucT (Rattus norvegicus, UniProt Q10984); assay: Enzyme assay of expressed recombinant full length α1→2FucT in homogenates of transfected COS-7 cells, transfer of [14C]fucose to GM1 (TLC); assay type: biochemical; details: for transfer to GM1 in the presence of additive, compared with no detergent or phospholipid: CHAPSO 100 μg, phosphatidylglycerol 250 μg
T1 construct: Full length α1→2FucT cDNA was then cloned into pcDNA 3 vector; expressed in transfected cells; host or cells: COS-7 cells, transient transfection, sonicated homogenate
T1 sequence (Q10984 1-380 isoform Q10984-2): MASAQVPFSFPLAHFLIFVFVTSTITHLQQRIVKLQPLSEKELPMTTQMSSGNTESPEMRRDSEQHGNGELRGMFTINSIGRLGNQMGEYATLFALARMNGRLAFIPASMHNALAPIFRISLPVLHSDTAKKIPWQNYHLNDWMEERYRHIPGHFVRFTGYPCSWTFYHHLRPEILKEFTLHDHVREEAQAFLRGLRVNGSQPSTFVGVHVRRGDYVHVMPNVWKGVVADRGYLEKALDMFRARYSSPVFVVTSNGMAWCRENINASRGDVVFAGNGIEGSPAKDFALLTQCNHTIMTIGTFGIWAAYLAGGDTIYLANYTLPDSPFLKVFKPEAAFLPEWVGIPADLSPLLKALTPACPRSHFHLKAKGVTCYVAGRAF
From the text: Expression of full length α1→2FucT cDNA in transfected cells results in membrane-bound enzyme. COS-7 cells were transiently transfected by the DEAE-dextran method (Ausubel, F. M., et al., Current Protocols in Molecular Biology, Wiley, N.Y.) with either FL-RFT-pcDNA3 or FL-RFT(−)-pcDNA3. Four to five days later, the cells were harvested, sonicated in HEPES, glycerol, DTE buffer and assayed for enzyme activity as described previously (Sherwood, A. L., et al., 1998, Arch. Biochem. Biophys. 355:215-221).

[2] = biological target: T2, recombinant rat α1→2fucosyltransferase (Rattus norvegicus, UniProt Q10984); assay: Preparative in vitro biosynthesis of fucosyl-GM1 with homogenate of COS-7 cells expressing rat α1→2fucosyltransferase (HPTLC); assay type: biochemical; details: 0.5 mg GM1, 2 mg crude cell homogenate, after 24 to 48 hours
T2 construct: Full length α1→2FucT cDNA was then cloned into pcDNA 3 vector; expressed in transfected cells; host or cells: COS-7 cells, transient transfection, sonicated homogenate
T2 sequence (Q10984 1-380 isoform Q10984-2): T1 sequence (Q10984 1-380 isoform Q10984-2)
Procedure: Preparative biosynthesis of fucosyl-GM1 was conducted in reaction mixtures composed of 25 μmol of HEPES buffer, pH 7.2, 10 μmol of MnCl2, 500 μg CHAPSO, 0.5 mg GM1, and 2 mg crude cell homogenate of COS-7 cells transiently transfected with plasmid containing the entire rat α1→2fucosyltransferase coding sequence in a total volume of 0.5 ml. Progress of the reaction was followed with time by withdrawing 2 μl of the reaction mixture and spotting it on an HPTLC plate. The plate was developed in a solvent system composed of CHCL3:CH3OH:H2O, 60:40:9, containing 0.02% CaCl2. Glycolipid bands were determined by orcinol spray (FIG. 9).

[3] = biological target: T3, catalytic domain of rat hepatoma H35 cell α1→2FucT (Rattus norvegicus, UniProt Q10984); assay: α1→2Fucosyltransferase assay, pPROTA-expressed catalytic domain on IgG-agarose beads, transfer of [14C]fucose to glycolipid acceptors (TLC); assay type: biochemical; details: 30 μg acceptor, 2 h at 37° C., 250 μg phosphatidylglycerol, GDP-[14C]fucose
T3 construct: made in house; host or cells: COS-7 cells (secreted fusion protein, captured on IgG-agarose)
T3 sequence (Q10984 28-380 isoform Q10984-2): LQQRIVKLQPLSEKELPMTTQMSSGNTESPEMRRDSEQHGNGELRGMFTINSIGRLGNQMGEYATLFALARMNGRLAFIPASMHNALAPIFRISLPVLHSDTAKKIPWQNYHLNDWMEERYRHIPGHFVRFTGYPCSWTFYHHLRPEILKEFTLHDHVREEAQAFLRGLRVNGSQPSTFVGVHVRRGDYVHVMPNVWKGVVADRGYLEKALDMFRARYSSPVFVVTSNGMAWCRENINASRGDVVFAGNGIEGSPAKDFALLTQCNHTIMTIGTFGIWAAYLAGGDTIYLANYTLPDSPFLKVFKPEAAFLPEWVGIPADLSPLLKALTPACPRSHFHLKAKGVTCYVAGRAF
Procedure: For example, as illustrated in Section 6.3.2, infra, the activity of α1→2fucosyltransferase coupled to the IgG-binding domain of Protein A can be determined in reaction mixtures containing 2.5 μmol of HEPES buffer, pH7.2, 30 μg of GM1. ganglioside or nLc4, 250 μg phosphatidylglycerol, 1 μmol of MnCl2, 0.5 μmol of CDP-choline, 15 nmol of GDP-[^14C]fucose (15,000 cpm/nmol), and bound to IgG-agarose beads in a total volume of 0.1 ml. The reaction mixtures are incubated for 2 h at 37° C., terminated by the addition of 0.1 ml of CHCl3:CH3OH (2:1), streaked onto 4-cm-wide strips of Whatman 3 paper and developed with water overnight. The papers are dried and the labeled product extracted from the origins with 2- to 5-ml washes of CHCl3:CH3OH:H2O (10:5:1). The combined eluates are concentrated to dryness by an N2 stream and dissolved in 20 μl of CHCl3:CH3OH (2:1). A 10-μl aliquot of each is spotted onto a HP-TLC plate (Merck)and developed in a solvent system composed of CHCl3:CH3OH:H2O (60:40:9), 0.02% CaCl2.2H2O. […]
α1→2Fucosyltransferase activity was determined in reaction mixtures containing 2.5 μmol of HEPES buffer, pH7.2, 30 μg of GM1 ganglioside or nLc4, 250 μg phosphatidylglycerol, 1 μmol of MnCl2, 0.5 μmol of CDP-choline, 15 nmol of GDP-[^14C]fucose (15,000 cpm/nmol), and pPROTA-expressed enzyme bound to IgG-agarose beads in a total volume of 0.1 ml. […]

transfer of fucose to acceptor [3] | Compound | transfer to GM1 in the presence of additive, compared with no detergent or phospholipid [1] | also measured
– | CC(=O)Nc1ccc2c(c1)Cc1ccccc1-2 [AAF, N-2-acetylaminofluorene] | – | α1→2FucT enzyme activity in liver (α1→2FucT): moderate level
– | C[C@H](CCC(=O)NCCC[N+](C)(C)CC(O)CS(=O)(=O)[O-])[C@H]1CC[C@H]2[C@@H]3[C@H](O)C[C@@H]4C[C@H](O)CC[C@]4(C)[C@H]3C[C@H](O)[C@]12C (stereo partly shown) [CHAPSO] | Comparable transfer | –
transfer fucose to GM1 | II^3NeuAcGg4 [GM1] | – | conversion of GM1 to fucosyl-GM1 [2]: almost complete conversion; transfer of fucose to GM1 by full length enzyme ([1]; two hours at 37° C.): transfers fucose to GM1 with high efficiency
No detectable transfer | lactoneotetraosylceramide [nLcOse4Cer] | – | –
– | phosphatidylglycerol | Somewhat less transfer | –
